Biological target: Proteasome chymotrypsin-like activity (S26 protein from RPMI8226 cells) (Homo sapiens, UniProt P28074)
Format: biochemical
Details: S26 protein from RPMI8226 cell extract 2 ug/well, substrate 20 uM, 37° C., 90 minutes; read-out: Proteasome chymotrypsin-like activity inhibition IC50
Outline: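 S26 proteasome fraction from homogenized RPMI8226 myeloma cells in 20 mM Tris-HCl pH 8.0 (2 ug extract/well) incubated 90 min at 37 °C with compound serially diluted from 10 uM (0.5% DMSO).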

Chain of Proteasome chymotrypsin-like activity (S26 protein from RPMI8226 cells) (P28074 60-263 limits assumed): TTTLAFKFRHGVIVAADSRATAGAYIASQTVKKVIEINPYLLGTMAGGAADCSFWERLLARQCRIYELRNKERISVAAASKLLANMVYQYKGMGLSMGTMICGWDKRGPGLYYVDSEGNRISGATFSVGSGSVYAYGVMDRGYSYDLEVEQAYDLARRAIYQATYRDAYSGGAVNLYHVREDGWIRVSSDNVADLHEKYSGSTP

Row | IC50 | Structure (SMILES)
1 | < 10 nM | Cc1cccc(CC2(C(=O)N[C@@H](CC(C)C)B(O)O)CC(CNC(=O)c3ccnn3C(C)C)=NO2)c1 (stereo partly drawn) [Example 242, ((1R)-1-(3-((1-isopropyl-1H-pyrazol-5-carboxamido)methyl)-5-(3-methylbenzyl)-4,5-dihydroisoxazol-5-carboxamido)-3-methylbutyl)boronic acid]
2 | < 10 nM | Cc1cccc(CC2(C(=O)N[C@@H](CC(C)C)B(O)O)CC(CNC(=O)c3cc(C)nn3C3CCCC3)=NO2)c1 (stereo partly drawn) [Example 243, ((1R)-1-(3-((1-cyclopentyl-3-methyl-1H-pyrazol-5-carboxamido)methyl)-5-(3-methylbenzyl)-4,5-dihydroisoxazol-5-carboxamido)-3-methylbutyl)boronic acid]
3 | < 10 nM | Cc1cccc(CC2(C(=O)N[C@@H](CC(C)C)B(O)O)CC(CNC(=O)c3c(Cl)c(C)nn3C(C)C)=NO2)c1 (stereo partly drawn) [Example 244, ((1R)-1-(3-((4-chloro-1-isopropyl-3-methyl-1H-pyrazol-5-carboxamido)methyl)-5-(3-methylbenzyl)-4,5-dihydroisoxazol-5-carboxamido)-3-methylbutyl)boronic acid]
4 | < 10 nM | Cc1cccc(CC2(C(=O)N[C@@H](CC(C)C)B(O)O)CC(CNC(=O)c3cc(-c4ccccn4)nn3C(C)C)=NO2)c1 (stereo partly drawn) [Example 245, ((1R)-1-(3-((1-isopropyl-3-(pyridin-2-yl)-1H-pyrazol-5-carboxamido)methyl)-5-(3-methylbenzyl)-4,5-dihydroisoxazol-5-carboxamido)-3-methylbutyl)boronic acid]
5 | < 10 nM | Cc1nn(C(C)C)c(C(=O)NCC2=NOC(Cc3cccc(Cl)c3)(C(=O)N[C@@H](CC(C)C)B(O)O)C2)c1Cl (stereo partly drawn) [Example 248, ((1R)-1-(3-((4-chloro-1-isopropyl-3-methyl-1H-pyrazol-5-carboxamido)methyl)-5-(3-chlorobenzyl)-4,5-dihydroisoxazol-5-carboxamido)-3-methylbutyl)boronic acid]
6 | < 10 nM | CC(C)C[C@H](NC(=O)C1(Cc2cccc(Cl)c2)CC(CNC(=O)c2cc(-c3ccccc3)nn2C(C)C)=NO1)B(O)O (stereo partly drawn) [Example 249, ((1R)-1-(5-(3-chlorobenzyl)-3-((1-isopropyl-3-phenyl-1H-pyrazol-5-carboxamido)methyl)-4,5-dihydroisoxazol-5-carboxamido)-3-methylbutyl)boronic acid]
7 | < 10 nM | CC(C)C[C@H](NC(=O)C1(Cc2cccc(Cl)c2)CC(CNC(=O)c2ccnn2C(C)C)=NO1)B(O)O (stereo partly drawn) [Example 250, ((1R)-1-(5-(3-chlorobenzyl)-3-((1-isopropyl-1H-pyrazol-5-carboxamido)methyl)-4,5-dihydroisoxazol-5-carboxamido)-3-methylbutyl)boronic acid]
8 | < 10 nM | Cc1cccc(CC2(C(=O)N[C@@H](CC(C)C)B(O)O)CC(CNC(=O)c3cc(C)nn3C3CCOCC3)=NO2)c1 (stereo partly drawn) [Example 251, ((1R)-3-methyl-1-(3-((3-methyl-1-(tetrahydro-2H-pyran-4-yl)-1H-pyrazol-5-carboxamido)methyl)-5-(3-methylbenzyl)-4,5-dihydroisoxazol-5-carboxamido)butyl)boronic acid]
9 | < 10 nM | CC(C)C[C@H](NC(=O)C1(Cc2ccccc2)CC(CCNC(=O)c2nccc3ccccc23)=NO1)B(O)O (stereo partly shown) [Example 253]
10 | < 10 nM | CC(C)C[C@H](NC(=O)C1(Cc2ccccc2)CC(COc2ccccc2)=NO1)B(O)O (stereo partly shown) [Example 254]
11 | < 25 nM | O=C(N[C@@H](Cc1ccccc1)B(O)O)C1(Cc2ccccc2)CC(COc2ccccc2)=NO1 (stereo partly drawn) [Example 255, ((1R)-1-(5-benzyl-3-(phenoxymethyl)-4,5-dihydroisoxazol-5-carboxamido)-2-phenylethyl)boronic acid]
12 | < 10 nM | CC(C)C[C@H](NC(=O)C1(Cc2ccccc2)CC(COc2cccc(Cl)c2)=NO1)B(O)O (stereo partly shown) [Example 258]
13 | < 50 nM | O=C(N[C@@H](Cc1ccccc1)B(O)O)C1(Cc2ccccc2)CC(COc2cccc(Cl)c2)=NO1 (stereo partly drawn) [Example 259, ((1R)-1-(5-benzyl-3-((3-chlorophenoxy)methyl)-4,5-dihydroisoxazol-5-carboxamido)-2-phenylethyl)boronic acid]
14 | < 50 nM | CC(C)C[C@H](NC(=O)C1(Cc2ccccc2)CC(COCc2cccc(Cl)c2)=NO1)B(O)O (stereo partly shown) [Example 260]
15 | < 25 nM | O=C(N[C@@H](Cc1ccccc1)B(O)O)C1(Cc2ccccc2)CC(COCc2cccc(Cl)c2)=NO1 (stereo partly drawn) [Example 261, ((1R)-1-(5-benzyl-3-(((3-chlorobenzyl)oxy)methyl)-4,5-dihydroisoxazol-5-carboxamido)-2-phenylethyl)boronic acid]
16 | < 100 nM | CC(C)C[C@H](NC(=O)C1(Cc2ccccc2)CC(COc2ccc3ccccc3c2)=NO1)B(O)O (stereo partly shown) [Example 262]
17 | < 50 nM | O=C(N[C@@H](Cc1ccccc1)B(O)O)C1(Cc2ccccc2)CC(COc2ccc3ccccc3c2)=NO1 (stereo partly drawn) [Example 263, ((1R)-1-(5-benzyl-3-((naphthalen-2-yloxy)methyl)-4,5-dihydroisoxazol-5-carboxamido)-2-phenylethyl)boronic acid]
18 | < 10 nM | CC(C)C[C@H](NC(=O)C1(Cc2ccccc2)CC(COCc2cccc(C#N)c2)=NO1)B(O)O (stereo partly shown) [Example 264]
19 | < 10 nM | N#Cc1cccc(COCC2=NOC(Cc3ccccc3)(C(=O)N[C@@H](Cc3ccccc3)B(O)O)C2)c1 (stereo partly drawn) [Example 265, ((1R)-1-(5-benzyl-3-(((3-cyanobenzyl)oxy)methyl)-4,5-dihydroisoxazol-5-carboxamido)-2-phenylethyl)boronic acid]
20 | < 10 nM | CC(C)C[C@H](NC(=O)C1(Cc2ccccc2)CC(COCc2cccn3ccnc23)=NO1)B(O)O (stereo partly shown) [Example 266]
21 | < 10 nM | O=C(N[C@@H](Cc1ccccc1)B(O)O)C1(Cc2ccccc2)CC(COCc2cccn3ccnc23)=NO1 (stereo partly drawn) [Example 267, ((1R)-1-(5-benzyl-3-((imidazo[1,2-a]pyridin-8-ylmethoxy)methyl)-4,5-dihydroisoxazol-5-carboxamido)-2-phenylethyl)boronic acid]
22 | < 10 nM | CC(C)C[C@H](NC(=O)C1(Cc2ccccc2)CC(COCc2ccccn2)=NO1)B(O)O (stereo partly shown) [Example 268]
23 | < 25 nM | O=C(N[C@@H](Cc1ccccc1)B(O)O)C1(Cc2ccccc2)CC(COCc2ccccn2)=NO1 (stereo partly drawn) [Example 269, ((1R)-1-(5-benzyl-3-((pyridin-2-ylmethoxy)methyl)-4,5-dihydroisoxazol-5-carboxamido)-2-phenylethyl)boronic acid]
24 | < 10 nM | Cc1cccc(COCC2=NOC(Cc3ccccc3)(C(=O)N[C@@H](CC(C)C)B(O)O)C2)c1 (stereo partly shown) [Example 270]
25 | < 10 nM | Cc1cccc(COCC2=NOC(Cc3ccccc3)(C(=O)N[C@@H](Cc3ccccc3)B(O)O)C2)c1 (stereo partly drawn) [Example 271, ((1R)-1-(5-benzyl-3-(((3-methylbenzyl)oxy)methyl)-4,5-dihydroisoxazol-5-carboxamido)-2-phenylethyl)boronic acid]
26 | < 10 nM | COc1cccc(COCC2=NOC(Cc3ccccc3)(C(=O)N[C@@H](CC(C)C)B(O)O)C2)c1 (stereo partly shown) [Example 272]
27 | < 10 nM | COc1cccc(COCC2=NOC(Cc3ccccc3)(C(=O)N[C@@H](Cc3ccccc3)B(O)O)C2)c1 (stereo partly drawn) [Example 273, ((1R)-1-(5-benzyl-3-(((3-methoxybenzyl)oxy)methyl)-4,5-dihydroisoxazol-5-carboxamido)-2-phenylethyl)boronic acid]
28 | < 100 nM | COc1ccc(COCC2=NOC(Cc3ccccc3)(C(=O)N[C@@H](CC(C)C)B(O)O)C2)cc1 (stereo partly shown) [Example 274]

From patent publication US12570675B2, “Boronic acid compounds” (LG CHEM, LTD., priority 2020, dated 2026)
